According to patent US8592421B2, “Cyclic bioisosters of purine system derivatives and a pharmaceutical composition based thereon” (priority 2003, dated 2013):

What was measured:
[1] = Electrochemical activity: polarographic reduction on mercury dripping electrode; assay type: physicochemical; conditions: for number of electrons participating in the reduction reaction: calculated with Geirovsky-Ilkovich equation; for i: 2.0% sodium chloride background, 9·10^−4 M; for i / −E1/2: 37° C., forward trace, average for the group of compounds; for −E1/2: vs SCE; for half-wave potential more positive at reverse stroke compared to forward stroke: polarograms of reverse stroke
Description: The study was carried out on a general-purpose polarograph PU-1 with a two-coordinate recorder of the “LKD” type using a three-electrode thermostatically controlled polarographic cell and mercury dripping electrode (MDE) with forced separation of the drop and a dropping period of 0.5 second. A platinum wire was used as an auxiliary electrode and a saturated calomel electrode (SCE) was used as a control electrode.
2.0% solutions of sodium chloride having pH 7.0, 7.2, 7.4, 7.6 were used as a background; the pH values of the background solution were corrected by a solution of sodium hydroxide. The polarographic cell was filled with 5.0 ml of the background solution and for 5 minutes was purged with nitrogen for removing the dissolved oxygen. Then 0.5 ml of solution of the studied substance was added to the background solution, and the polarogram was recorded as a polarographic wave. The concentration of the compounds in the polarographic cell was 9·10^−4 M.
The pH was measured on the pH-meter with an accuracy of +0.05 pH units. The polarographic measurements were carried out at a temperature of 37° C. The recording of polarograms of the investigated materials was effected under conditions of DC current at a scanning rate of the potential 10.0 mV/s with a active scanning stroke from a potential 0 to −0.5 V and sweep retrace from a −0.5 V to 0. The electric-current sensitivity was 5.0 mkA. The scale by the coordinate of the potentials was 50.0 mV/cm. The values of potentials of the half-wave E1/2 of the investigated materials are given with respect to the SCE potential.
The polarogram parameters such as a limiting current ilim and E1/2 were determined by the graphic method. The number of electrons participating in the reaction was calculated on the basis of the analysis of the polarographic wave using the Geirovsky-Ilkovich equation.
The calculation of the number of electrons participating in the reduction reaction was effected using the Geirovsky-Ilkovich equation: […]

[2] = system: embryonic fibroblasts of mouse NIH-3T3; experiment: Effect on endocellular pHi of fibroblasts (microspectrofluorimetry with FDA / BCECF-AM); assay type: cell-based; conditions: for rise of pHi: fibroblasts in an attached spread state; for change of pHi: medium DME without blood serum, 20 minutes; for increase of pHi of cytosol: medium with 10.0% blood serum, 20 minutes after addition
Description: The effect of the compounds according to the invention on the endocellular pH, embryonic fibroblasts of mouse NIH-3T3 supplied by the All-Russian Collection of Cellular Cultures of the Institute of Cytology of the Russian Academy of Sciences St. Petersburg was investigated. The cells were grown in the DMEM (Sigma) medium containing 2.2 g/l of sodium bicarbonate with addition of 80.0 mkg/ml of gentamicin and 10.0% embryonal veal serum at a temperature of 37° C. in an atmosphere containing 5.0% of carbon dioxide. For these experiments use was also made of a medium buffer with 5.0 mM of HEPES and 15.0 mM of sodium bicarbonate without serum or with addition of 5.0% serum. The cells were calculated with the help of a hemocytometer. A share of the dead cells was determined by colouring trypan blue.
The measurements of the endocellular pHi were carried out with the help of colorants FDA (Sigma) and BCECF-AM (Calbiochem) on a microspectrofluorimeter by a standard technique (Koshevoy Yu. V., Akatov V. S., Grobova M. E. Microspectrofluorimeter for measuring endocellular pH (micro pH)”. Devices and equipment for studies in the field of physical-and-chemical biology and biotechnology. Pushchino, 1990. P. 8-14).
The cells at a temperature of 37° C. were colored within 5 minutes with 5.0 mkM PDA that before the colouring was prepared from a 10.0 mM solution in acetone by dilution for 30 minutes in a phosphatic buffer to 0.1 mM or 2.0 mkM 1.0 mM solution BCECF-AM in DMSO.
The two-wave method of determining pHi was used based on the ratio intensities of fluorescence of the cells on two wavelengths (Akatov V. S. et all), “Endocellular pH and substrate dependence of proliferation of fibroblasts of Chinese hamster, Cytology, 1991, 33 (7), p. 86-94). The fluorescence was excited by light at λ=490 nm, the emission was recorded simultaneously with two photomultipliers on wavelengths λ=535 nm and λ=570 nm. The K-ratio of the fluorescence on two wavelengths was determined with a deduction of the background fluorescence of the medium near the investigated cells for 40-60 individual cells, which are then averaged taking into account the measurement error. A thermostatically controlled table was used that allowed measurements to be conducted at a temperature of 37° C. An account was taken for the photodynamic damage of the pigmented cells during long-time continuous illumination by excited light. The readings were taken from a section of the preparation exposed to light for not more than 5 minutes.
The calibration curves for determining the absolute pHi values by magnitude K were constructed using the Thomas technique (Thomas J. A., Bushbaum R. N., Zimniak A. w Racker E. “Intracellular pH measurements in Ehrlich ascites tumor cells utilizing spectroscopic probe generated in situ”, Biochemistry, 1979, v. 18, p. 2210-2218), for which case the pigmented cells treated for 5-10 minutes with carboxyacidic nigericyn (Calbiochem) at a concentration of 5-10 mkg/ml was placed in a solution with a high content of potassium—130 mM KCl, 1.0 mM MgCl2, 20.0 mM of HEPES) and with pH values from 6.2 to 7.6. The K values were measured in the media with different pH assuming that pHi of the cells equals to the pH of the medium due to the action of nigericyn, which exchanges potassium ions for protons and at a high content of potassium in the medium counterbalances the pH of the medium and cells. Calibration curves were used based on the fluorescence of same medium with addition of 5.0 mkM of fluorescence or BCECF were used to the control the stability of the of the instrument readings.
The cells were colored by pigment BCECF-AM and pHi was measured 10 minutes after incubation in the medium with an appropriate pH value. […]

Compound	number of electrons participating in the reduction reaction [1]	i ([1]; pH 7.0) [mkA]	−E1/2 ([1]; pH 7.0) [V]	i ([1]; pH 7.2) [mkA]	−E1/2 ([1]; pH 7.2) [V]	i ([1]; pH 7.4) [mkA]	−E1/2 ([1]; pH 7.4) [V]	i ([1]; pH 7.6) [mkA]	−E1/2 ([1]; pH 7.6) [V]	half-wave potential more positive at reverse stroke compared to forward stroke [1] [mV]	rise of pHi ([2]; 2.0 mkg/ml, on the average) [unit pHi]	rise of pHi ([2]; 20.0 mkg/ml, on the average) [unit pHi]	change of pHi ([2]; 0.02 mkg/ml)	change of pHi ([2]; 0.2 mkg/ml)	change of pHi ([2]; 2.0 mkg/ml, on the average) [unit pHi]	change of pHi ([2]; 20.0 mkg/ml, on the average) [unit pHi]	change of pHi ([2]; 200 mkg/ml)	change of pHi ([2]; 1000 mkg/ml)	increase of pHi of cytosol ([2]; 0.02 mkg/ml)	increase of pHi of cytosol ([2]; 0.2 mkg/ml, on the average) [unit pH]	also measured
O=c1[nH][nH]c(=O)c2ncccc12.[Na] [Compound 7, sodium salt of pyrido[2,3-d]-6H-pyridazine-5,8-dione]	3.72	0.26 ± 0.04	0.11 ± 0.02	0.31 ± 0.02	0.11 ± 0.03	0.27 ± 0.03	0.105 ± 0.01	0.30 ± 0.01	0.105 ± 0.02	25.0	0.10	0.07	no effect was found	no effect was found	0.08	0.08	no effect was found	no effect was found	do not initiate a change of pH	0.1	increase of pHi of cytosol ([2]; 2.0 mkg/ml, on the average): 0.12 unit pH; increase of pHi of cytosol ([2]; 20.0 mkg/ml): do not initiate a change of pH
O=C([O-])c1ccc2c(=O)[nH][nH]c(=O)c2c1.O=C([O-])c1ccc2c(=O)[nH][nH]c(=O)c2c1.[Na+].[Na+] [Compound 18, disodium salt of 6-carboxy-benzo[d]-3H-pyridazine-1,4-dione]	4.09	0.23 ± 0.03	0.092 ± 0.02	0.30 ± 0.01	0.09 ± 0.01	0.29 ± 0.02	0.092 ± 0.02	0.31 ± 0.02	0.09 ± 0.01	30.0	0.10	0.07	no effect was found	no effect was found	0.08	0.08	no effect was found	no effect was found	do not initiate a change of pH	0.1	increase of pHi of cytosol ([2]; 2.0 mkg/ml, on the average): 0.12 unit pH; increase of pHi of cytosol ([2]; 20.0 mkg/ml): do not initiate a change of pH
O=c1[nH][nH]c(=O)c2ncncc12.[Li] [Compound 35, lithium salt of pyrimido[4,5-d]-6H-pyridazine-5,8-dione]	3.5	0.30 ± 0.05	0.08 ± 0.02	0.26 ± 0.02	0.085 ± 0.015	0.30 ± 0.03	0.085 ± 0.02	0.30 ± 0.02	0.09 ± 0.02	27.0	0.10	0.07	no effect was found	no effect was found	0.08	0.08	no effect was found	no effect was found	do not initiate a change of pH	0.1	increase of pHi of cytosol ([2]; 2.0 mkg/ml, on the average): 0.12 unit pH; increase of pHi of cytosol ([2]; 20.0 mkg/ml): do not initiate a change of pH
